# Laboratory results: PMC9320067, “Novel Potent and Selective Agonists of the GPR55 Receptor Based on the 3-Benzylquinolin-2(1H)-One Scaffold” (Pharmaceuticals, 2022)
# Where two headings read alike, the source gives them in different places.
# Columns and labels:
# hGPR55 [1] = target: T1, hGPR55 (Homo sapiens, UniProt Q9Y2T6); assay: [3H]CP55,940 radioligand displacement assay on hGPR55 CHO cell membranes; assay type: binding
# T1 construct: host or cells: CHO-K1
# Experimental: (§1) Assays were performed as described previously and summarized here. […] Binding was initiated by the addition of transfected hGPR55, hCB1R or hCB2R CHO cell membranes (25 μg protein per well). All assays were performed at 37°C for 120 min prior to quenching with ice-cold Tris binding buffer followed by vacuum filtration using a 24-well sampling manifold (Brandel Cell Harvester; Brandel, Inc., Gaithersburg, MD, USA) and Brandel GF/B filters. Each reaction well was washed six times with 1.2 mL aliquots of Tris-binding buffer. The filters were air-dried overnight and then placed in 5 mL of scintillation fluid (Ultima Gold XR, Perkin Elmer, Inc., Waltham, MA, USA). Liquid scintillation spectrometry was used for quantifying radioactivity.
# (§2) Data for p-ERK in-cell westerns are shown as fold over vehicle response (i.e., 1). Estimates of Ki, EC50 and Emax were determined using non-linear regression (3 parameters) (GraphPad, Prism, v. 9.0). p < 0.05 was determined to be significant.
# hGPR55 [2] = target: T1, hGPR55; assay: p-ERK1/2 activation, in-cell Western, CHO cells expressing hGPR55; assay type: cell-based; conditions: for Emax, p-ERK1/2 activation: fold over vehicle, CHO cells expressing hGPR55, 30 min, mean ± SEM
# Experimental: Downstream signaling by hGPR55 was investigated by quantifying p-ERK activation in the in-cell Western assay.
# Cells were seeded at approximately 2000 cells/well in 96-well plates and treated with 0.1–10 μM compounds for 30 min and were then fixed for 10 min at room temperature with 4% paraformaldehyde. Cells were washed 3 times with 100 μL 1X PBS for 5 min each. Cells were incubated with blocking solution (PBS, 20% Odyssey blocking buffer, and 0.1% TritonX-100) for 1 h at room temperature. Next, cells were exposed to primary antibodies for p-ERK1/2(T202/Y204) (mouse monoclonal IgG, Cat# sc-136521) or ERK1/2 (rabbit polyclonal IgG, Cat# sc-292838) (Santa Cruz Biotechnology, Santa Cruz, CA) diluted (1:200) in blocking solution overnight at 4 °C. Cells were washed 3 times with 100 μL PBS for 5 min each. Cells were exposed to the secondary antibodies goat polyclonal anti-rabbit IgG IR^Dye800-conjugated antibody diluted 1:500 (Li-Cor Biosciences, IgG, Cat# P/S 926-32210, RRID AB-2687825, lot# C50113-18) and goat polyclonal anti-mouse IgG IR^Dye680-conjugated antibody diluted 1:500 (Li-Cor Biosciences, IgG, Cat# P/N 925-68070, RRID AB-2651128, lot# C50113-17) for 1 h at room temperature. Cells were washed 3 times with 100 μL PBS for 5 min each. Analyses were conducted using the Odyssey Imaging system and software (version 3.0; Li-Cor).
# as §2
# human CB1R = target: T2, human CB1R (Homo sapiens, UniProt P21554); assay: [3H]CP55,940 radioligand displacement assay on hCB1R CHO cell membranes; assay type: binding
# T2 construct: HitHunter) 95-0071C2; host or cells: CHO-K1
# T2 sequence (P21554 whole entry): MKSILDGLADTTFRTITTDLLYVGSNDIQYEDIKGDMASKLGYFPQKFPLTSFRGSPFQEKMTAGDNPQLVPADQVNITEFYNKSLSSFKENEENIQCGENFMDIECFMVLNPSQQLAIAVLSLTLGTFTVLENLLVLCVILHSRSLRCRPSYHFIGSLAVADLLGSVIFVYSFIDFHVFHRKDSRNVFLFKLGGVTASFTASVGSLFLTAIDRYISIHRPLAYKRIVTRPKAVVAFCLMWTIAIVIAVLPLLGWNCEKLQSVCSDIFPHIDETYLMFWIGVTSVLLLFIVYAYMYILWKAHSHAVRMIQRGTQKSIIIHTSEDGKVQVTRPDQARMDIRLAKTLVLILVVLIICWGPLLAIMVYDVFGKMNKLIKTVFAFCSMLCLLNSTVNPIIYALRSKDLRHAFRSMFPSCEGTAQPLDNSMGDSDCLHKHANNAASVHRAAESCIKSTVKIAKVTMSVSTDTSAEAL
# Experimental: as §1, §2
# human CB2R = target: T3, human CB2R (Homo sapiens, UniProt P34972); assay: [3H]CP55,940 radioligand displacement assay on hCB2R CHO cell membranes; assay type: binding
# T3 construct: host or cells: CHO-K1
# T3 sequence (P34972 whole entry): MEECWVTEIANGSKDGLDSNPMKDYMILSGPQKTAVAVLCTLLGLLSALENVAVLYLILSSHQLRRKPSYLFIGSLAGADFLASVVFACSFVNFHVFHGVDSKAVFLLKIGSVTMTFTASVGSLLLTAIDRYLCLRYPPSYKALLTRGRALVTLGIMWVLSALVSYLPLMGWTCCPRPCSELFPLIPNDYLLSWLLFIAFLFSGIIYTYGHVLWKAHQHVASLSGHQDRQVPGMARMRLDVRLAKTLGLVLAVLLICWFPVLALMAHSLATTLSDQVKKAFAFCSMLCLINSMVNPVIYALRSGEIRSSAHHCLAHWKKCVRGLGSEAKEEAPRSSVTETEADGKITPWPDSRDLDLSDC
# Experimental: as §1, §2
# [3] = CHO cells expressing hGPR55, 30 min treatment, mean (95% CI), n = 6, read-out: EC50 95% CI, p-ERK1/2 activation
# T1 sequence (Q9Y2T6 whole entry): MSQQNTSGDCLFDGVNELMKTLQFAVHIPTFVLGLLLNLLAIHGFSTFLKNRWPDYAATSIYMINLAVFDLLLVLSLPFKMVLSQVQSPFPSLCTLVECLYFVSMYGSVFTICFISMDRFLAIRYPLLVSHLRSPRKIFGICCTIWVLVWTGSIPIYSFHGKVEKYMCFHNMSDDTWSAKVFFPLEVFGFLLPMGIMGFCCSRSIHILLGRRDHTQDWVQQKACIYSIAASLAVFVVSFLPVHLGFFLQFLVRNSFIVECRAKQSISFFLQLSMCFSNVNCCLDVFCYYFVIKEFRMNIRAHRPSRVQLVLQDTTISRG
SMILES,Ki (hGPR55 [1]) [nM],EC50 (hGPR55 [2]) [nM],melting point [°C],Ki (hGPR55 [1]; read-out: Ki hGPR55) [nM],Ki (human CB1R) [nM],Ki (human CB2R) [nM],EC50 (hGPR55 [2]; [3]) [nM],"Emax, p-ERK1/2 activation (hGPR55 [2]; n = 6) [Fold]"
"CCCCCCC(C)(C)c1ccc([C@@H]2C[C@H](O)CC[C@H]2CCCO)c(O)c1 [CP55,940, reference compound]",13,4.2,–,–,–,–,–,–
"CCCCc1cc(OC)c2cc(Cc3ccccc3OC)c(=O)[nH]c2c1 [Compound 1, 7-n-Butyl-5-methoxy-3-(2-methoxybenzyl)quinolin-2(1H)-one]",–,–,208 to 210,14,> 10000,> 10000,6.4,1.5 ± 0.06
"CCCCc1cc(OC)c2cc(Cc3ccccc3OC)c(=O)n(C)c2c1 [Compound 2, 7-n-Butyl-5-methoxy-3-(2-methoxybenzyl)-1-methylquinolin-2(1H)-one]",–,–,78 to 80,1.2,> 10000,6.9,1.1,1.4 ± 0.07
"CCCCc1cc(O)c2cc(Cc3ccccc3O)c(=O)[nH]c2c1 [Compound 3, 7-n-Butyl-5-hydroxy-3-(2-hydroxybenzyl)quinolin-2(1H)-one]",–,–,252 to 254,6.2,5.1,> 10000,1.4,1.2 ± 0.04
"CCCCc1cc(O)c2cc(Cc3ccccc3O)c(=O)n(C)c2c1 [Compound 4, 7-n-Butyl-5-hydroxy-3-(2-hydroxybenzyl)-1-methylquinolin-2(1H)-one]",–,–,223 to 225,7.1,29,7.9,11,1.3 ± 0.03
"C=C(C)[C@@H]1CCC(C)=C[C@H]1c1c(C)cc(O)cc1O [Compound O-1602, O-1602, reference compound]",–,–,–,10,–,–,61,1.3 ± 0.03
